According to ChEMBL document CHEMBL1687784, “Frequency of spontaneous resistance to fosfomycin combined with different antibiotics in Pseudomonas aeruginosa” (2010):
Values after ≈ are worked out from the molar mass of the structure shown.

Legend:
Pseudomonas aeruginosa [1] = assay: Antimicrobial activity against Pseudomonas aeruginosa PA14 by EUCAST method; assay type: functional
Pseudomonas aeruginosa [2] = assay: Antimicrobial activity against Pseudomonas aeruginosa PA14 mutS gene hypermutant by EUCAST method; assay type: functional

## NCC[C@H](O)C(=O)N[C@@H]1C[C@H](N)[C@@H](O[C@H]2O[C@H](CN)[C@@H](O)[C@H](O)[C@H]2O)[C@H](O)[C@H]1O[C@H]1O[C@H](CO)[C@@H](O)[C@H](N)[C@H]1O [AMIKACIN]
Pseudomonas aeruginosa [1]
  MIC: 1 µg/mL (≈ 1.71 µM)
Pseudomonas aeruginosa [2]
  MIC: 1 µg/mL (≈ 1.71 µM)

## CC(C)(O/N=C(\C(=O)N[C@@H]1C(=O)N2C(C(=O)[O-])=C(C[n+]3ccccc3)CS[C@H]12)c1csc(N)n1)C(=O)O [CEFTAZIDIME]
Pseudomonas aeruginosa [1]
  MIC: 1 µg/mL (≈ 1.83 µM)
Pseudomonas aeruginosa [2]
  MIC: 1 µg/mL (≈ 1.83 µM)

## O=C(O)c1cn(C2CC2)c2cc(N3CCNCC3)c(F)cc2c1=O [CIPROFLOXACIN]
Pseudomonas aeruginosa [1]
  MIC: 0.1 µg/mL (≈ 0.302 µM)
Pseudomonas aeruginosa [2]
  MIC: 0.1 µg/mL (≈ 0.302 µM)

## C[C@@H]1O[C@@H]1P(=O)(O)O [FOSFOMYCIN]
Pseudomonas aeruginosa [1]
  MIC: 8 µg/mL (≈ 57.9 µM)
Pseudomonas aeruginosa [2]
  MIC: 8 µg/mL (≈ 57.9 µM)

## C[C@@H](O)[C@H]1C(=O)N2C(C(=O)O)=C(SCCNC=N)C[C@H]12 [IMIPENEM ANHYDROUS]
Pseudomonas aeruginosa [1]
  MIC: 0.5 µg/mL (≈ 1.67 µM)
Pseudomonas aeruginosa [2]
  MIC: 0.5 µg/mL (≈ 1.67 µM)

## C[C@@H](O)[C@H]1C(=O)N2C(C(=O)O)=C(S[C@@H]3CN[C@H](C(=O)N(C)C)C3)[C@H](C)[C@H]12 [MEROPENEM]
Pseudomonas aeruginosa [1]
  MIC: 0.25 µg/mL (≈ 0.652 µM)
Pseudomonas aeruginosa [2]
  MIC: 0.25 µg/mL (≈ 0.652 µM)

## NC[C@H]1O[C@H](O[C@H]2[C@H](O)[C@@H](O[C@H]3O[C@H](CO)[C@@H](O)[C@H](N)[C@H]3O)[C@H](N)C[C@@H]2N)[C@H](N)C[C@@H]1O [TOBRAMYCIN]
Pseudomonas aeruginosa [1]
  MIC: 1 µg/mL (≈ 2.14 µM)
Pseudomonas aeruginosa [2]
  MIC: 1 µg/mL (≈ 2.14 µM)

## COLISTIN
Pseudomonas aeruginosa [1]
  MIC: 0.5 µg/mL
Pseudomonas aeruginosa [2]
  MIC: 0.5 µg/mL
